Data set [1] in a line: Partition coefficient (logP) (hexane). The note with it: octanol/water.
A short description of data set [2]: Partition coefficient (logP) (ether). The following applies: octanol/water.
A short description of data set [3]: Partition coefficient (logP) (chloroform). The note with it: octanol/water.
Data set [4] in a line: Partition coefficient (logP). The note with it: octanol/water.
The nature of data set [5]: Diffusion constant for permeability of stratum corneum. Format: ADME.
A short description of data set [6]: Partition coefficient (logP) (carbon tetrachloride). The note with it: octanol/water.
Data set [7] in a line: Partition coefficient (logP) (benzene). The note with it: octanol/water.

The logP is the decadic logarithm of the partition coefficient of the neutral form, usually between octanol and water. A higher logP goes with higher lipophilicity.

Turning to `COc1cccc(C=O)c1O`, the logP in data set [1] was 0.53; in data set [2], 1.35; in data set [3], 2.3; in data set [4], 1.37.

Turning to `CCC(N)CC`, the logP in data set [1] was -0.48; in data set [2], -0.07; in data set [3], 0.81; in data set [4] it was 0.57.

As for `O=C(O)c1cccc([N+](=O)[O-])c1`, the figures for the logP in data set [1], in data set [2] and in data set [3] were -1.22, 1.97 and 0.48, respectively.

On to `CCCCCCCO` [1-HEPTANOL], for which the logP in data set [1] turned out to be 1.01; in data set [2], 2.4; in data set [3], 2.41; in data set [4] it was 2.41.

For `CCCCCO` [1-PENTANOL], the logP in data set [1] is -0.4; in data set [2], 1.2; in data set [3], 1.05.

Turning to `Nc1ccccc1[N+](=O)[O-]` [2-NITROANILINE], the log partition coefficient (logP) in data set [1] was 0.25; in data set [2], 1.95; in data set [3] it was 2.13; in data set [4] it was 1.85.

Take `O=[N+]([O-])c1cccc(O)c1` [3-NITRO-PHENOL]: the logP is -1.4 in data set [1], 2.18 in data set [2] and 0.6 in data set [3].

As for `Nc1cccc([N+](=O)[O-])c1` [3-NITROANILINE], the logP in data set [1] was -0.62; in data set [2] it was 1.71; in data set [3], 1.61.

On to `O=Cc1ccc(O)cc1` [4-HYDROXYBENZALDEHYDE], for which the logP in data set [1] is given as -0.95; in data set [2] it was 1.1; in data set [3], -0.12.

Turning to `COC(C)=O` [ACETIC ACID METHYL ESTER], the logP in data set [1] was -0.26; in data set [2], 0.43; in data set [3], 1.16.

Regarding `CC(C)=O` [ACETONE], the logP was -0.91 in data set [1], -0.21 in data set [2] and 0.24 in data set [3].

`C[C@]12CCC(=O)C=C1CC[C@@H]1[C@@H]2[C@@H](O)C[C@]2(C=O)[C@@H](C(=O)CO)CC[C@@H]12` [ALDOSTERONE] came in with a Log k in data set [5] of 0.48.

With `Nc1ccccc1` [ANILINE], the results for the lipophilicity (logP) in data set [1], in data set [2] and in data set [3] were -0.3, 0.85 and 1.42, respectively.

With `Nc1ccccc1C(=O)O` [ANTHRANILIC ACID], the logP in data set [1] is on record as -2.12; in data set [2], 1.43; in data set [3], -1.15; in data set [4], 1.21.

Take `Oc1ccc2ccccc2c1` [BETANAPHTHOL]: the logP in data set [1] turned out to be 0.3; in data set [6], 0.99; in data set [2], 1.77; in data set [3], 1.74; in data set [7] it was 1.74.

Take `CCCCN` [BUTYLAMINE]: the logP in data set [1] is -0.62; in data set [2], 0.11; in data set [3] it was 0.56; in data set [4], 0.74.

Take `O=C(O)CCl` [CHLOROACETIC ACID]: the logP in data set [1] was -3.14; in data set [2], 0.37; in data set [3], -1.92; in data set [4], 0.22.

In data set [5], `C[C@]12C[C@H](O)[C@H]3[C@@H](CCC4=CC(=O)CC[C@@]43C)[C@@H]1CC[C@@H]2C(=O)CO` [CORTICOSTERONE] came in with a Log k of 1.78.

Regarding `C[C@]12CCC(=O)C=C1CC[C@@H]1[C@@H]2C(=O)C[C@@]2(C)[C@H]1CC[C@]2(O)C(=O)CO` [CORTISONE], the Log k in data set [5] is 1.

Regarding `C[C@]12CCC(=O)C=C1CC[C@@H]1[C@@H]2CC[C@@]2(C)[C@H]1CC[C@]2(O)C(=O)CO` [CORTODOXONE], in data set [5], the Log k is 1.88.

Regarding `C[C@]12CC[C@H]3[C@@H](CCC4=CC(=O)CC[C@@]43C)[C@@H]1CC[C@@H]2C(=O)CO` [DESOXYCORTICOSTERONE], in data set [5], the Log k was determined as 2.65.

In the case of `CCOC(C)=O` [ETHYL ACETATE], the logP in data set [1] stood at 0.29; in data set [2] it was 0.93; in data set [3], 1.8.

`CCN` [ETHYLAMINE]: the logP in data set [1] was -1.77; in data set [2], -1.18; in data set [3], -0.35; in data set [4] it was -0.3.

Take `COc1ccccc1O` [GUAIACOL]: the logP was found to be 0.36 in data set [1], 1.44 in data set [2], 1.7 in data set [3] and 1.32 in data set [4].

For `CCCCCC(=O)O` [HEXANOATE], the values for the lipophilicity (logP) in data set [1], in data set [2] and in data set [3] were -0.46, 1.95 and 1.15, respectively.

On to `Oc1ccc(O)cc1` [HYDROQUINONE], for which the logP in data set [1] was 0.05; in data set [6], 0.04; in data set [2], 0.38; in data set [3] it was 0.23; in data set [7], 0.15.

For `CC(=O)[C@@]1(O)CC[C@H]2[C@@H]3CC[C@@H]4C[C@H](O)CC[C@]4(C)[C@H]3CC[C@@]21C` [HYDROXYPREGNENOLONE], the Log k in data set [5] came out at 2.78.

`CC(=O)[C@@]1(O)CC[C@H]2[C@@H]3CCC4=CC(=O)CC[C@]4(C)[C@H]3CC[C@@]21C` [HYDROXYPROGESTERONE] yielded a Log k in data set [5] of 2.78.

As to `CC(C)CO` [ISOBUTANOL], the logP in data set [1] is -0.6; in data set [2], 0.53; in data set [3], 0.34; in data set [4] it was 0.65.

`COc1ccc(C=O)cc1O` [ISOVANILLIN]: the logP in data set [1] is -0.85; in data set [2] it was 0.82; in data set [3], 1.18; in data set [4], 0.97.

Regarding `COc1ccc(O)cc1` [MEQUINOL], the values for the logP in data set [1], in data set [2] and in data set [3] were -0.76, 1.47 and 0.23, respectively.

Regarding `CO` [METHYL ALCOHOL], the logP in data set [1] is -2.8; in data set [2], -1.15; in data set [3], -1.26; in data set [4], -0.77.

As to `O=[N+]([O-])c1ccccc1O` [NITROPHENOLATE], the logP in data set [1] is recorded as 1.4; in data set [2], 2.18; in data set [3], 2.35.

As for `O=[N+]([O-])c1ccc(O)cc1` [P-NITROPHENOL], the logP in data set [1] was -2; in data set [2], 2.01; in data set [3] it was 0.2.

On to `O=C(O)c1ccc(O)cc1` [PARABEN], for which the logP in data set [1] is listed as -1.82; in data set [2] it was 1.42; in data set [3] it was -0.5.

Turning to `CCCC(C)C1(CC)C(=O)NC(=O)NC1=O` (centres undefined) [PENTOBARBITAL], the logP was -1.3 in data set [1], 1.28 in data set [2], 1.38 in data set [3] and 2.1 in data set [4].

Take `CCC1(c2ccccc2)C(=O)NC(=O)NC1=O` [PHENOBARBITAL]: the logP was -2.22 in data set [1], 1.51 in data set [2], 0.62 in data set [3] and 1.71 in data set [4].

As for `Oc1ccccc1` [PHENOL], the logP was -0.7 in data set [1]; -0.36 in data set [6]; 1.64 in data set [2]; 0.37 in data set [3]; 0.36 in data set [7].

The compound `CC(=O)[C@H]1CC[C@H]2[C@@H]3CC=C4C[C@@H](O)CC[C@]4(C)[C@H]3CC[C@]12C` [PREGNENOLONE] showed a Log k in data set [5] of 3.17.

The compound `CC(=O)[C@H]1CC[C@H]2[C@@H]3CCC4=CC(=O)CC[C@]4(C)[C@H]3CC[C@]12C` [PROGESTERONE] yielded a Log k in data set [5] of 3.18.

For the compound `CCC(=O)O` [PROPIONIC ACID], the logP in data set [1] is listed as -2.14; in data set [2], 0.27; in data set [3] it was -0.96.

`CCCN` [PROPYLAMINE]: the results for the logP in data set [2], in data set [3] and in data set [4] were -0.54, 0.26 and 0.28, respectively.

Turning to `O=C(O)c1ccccc1O` [SALICYLIC ACID], the logP in data set [1] is -0.57; in data set [6], 0; in data set [2], 2.37; in data set [3], 0.58; in data set [7], 0.5.

For `CC(C)(C)N` [TERT-BUTYLAMINE], the logP is -0.48 in data set [1], -0.26 in data set [2], 0.54 in data set [3] and 0.27 in data set [4].

Turning to `C[C@]12CC[C@H]3[C@@H](CCC4=CC(=O)CC[C@@]43C)[C@@H]1CC[C@@H]2O` [TESTOSTERONE], the Log k in data set [5] amounted to 2.6.

Turning to `O=C(O)C(Cl)(Cl)Cl` [TRICHLOROACETIC ACID], the logP is -2.63 in data set [1], 1.21 in data set [2], -0.69 in data set [3] and 1.33 in data set [4].

With `CCCCC(=O)O` [VALERIC ACID], the logP was -1 in data set [1], 1 in data set [2], 0.28 in data set [3] and 1.39 in data set [4].

Take `COc1cc(C=O)ccc1O` [VANILLIN]: the logP is listed as -0.72 in data set [1], 0.96 in data set [2] and 1.42 in data set [3].
